{"source": "paper PMC3327805", "about": "(Journal of Molecular Biology, 2012)", "target": "PBPA (penicillin-binding protein A) (Mycobacterium tuberculosis, UniProt P9WKD1)", "sequence (P9WKD1 34-491)": "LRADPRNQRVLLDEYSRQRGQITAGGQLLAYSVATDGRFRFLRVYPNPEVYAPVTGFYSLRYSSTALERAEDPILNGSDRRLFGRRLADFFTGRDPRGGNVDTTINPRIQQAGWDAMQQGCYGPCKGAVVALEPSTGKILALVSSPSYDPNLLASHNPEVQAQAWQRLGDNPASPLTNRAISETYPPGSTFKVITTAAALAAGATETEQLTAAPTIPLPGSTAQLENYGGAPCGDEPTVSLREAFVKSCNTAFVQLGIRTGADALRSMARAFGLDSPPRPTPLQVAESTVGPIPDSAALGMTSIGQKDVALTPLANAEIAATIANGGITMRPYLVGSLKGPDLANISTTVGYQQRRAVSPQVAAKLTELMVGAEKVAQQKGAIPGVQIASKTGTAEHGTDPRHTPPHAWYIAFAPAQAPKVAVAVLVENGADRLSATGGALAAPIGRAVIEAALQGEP", "data": [{"smiles": "C[C@@H](O)[C@H]1C(=O)N2C(C(=O)O)=C(SCCN=CN)C[C@H]12", "note": "[Imipenem]", "values": [{"measurement": "Method / Intrinsic fluorescence", "value": "3,980 ± 180 M^-1 sec^-1"}]}]}
